# Results published in patent US10555960B2, “Use of an aminoglycoside for nonsense mutation suppression and the treatment of disease” (PTC Therapeutics, Inc., priority 2015, dated 2020).
# Where a name gives a salt, the structure may show the parent alone. Read-outs that look alike come from different tables or passages of the source.
# System: premature stop codon
# Experiment: Premature stop codon readthrough (nonsense suppression), full length protein production by enzyme-linked immunosorbent assay
# Format: cell-based
# Protocol: Table 1 also provides the median maximum fold increase of the full length protein production over DMSO-treated samples as also determined by enzyme-linked immunosorbent assay within the concentration range tested (up to 1 mM).
# [1] = median, enzyme-linked immunosorbent assay, concentration range tested up to 1 mM
# [2] = median, enzyme-linked immunosorbent assay, within concentration range tested (up to 1 mM)
molecule,measurement,setting,value
CN[C@@H]1[C@@H](O)[C@@H](O[C@@H]2[C@@H](O)[C@H](O[C@H]3O[C@H]([C@@H](C)N)CC[C@H]3N)[C@@H](N)C[C@H]2N)OC[C@]1(C)O [Gentamicin C2 sulfate],EC2X (median concentration that doubles the intensity of the nonsense suppression),[1],95 µM
same,Max Fold over DMSO (median maximum fold increase of full length protein production over DMSO-treated samples),[2],5.5
CN[C@@H]1[C@@H](O)[C@@H](O[C@@H]2[C@@H](O)[C@H](O[C@H]3O[C@H]([C@@H](C)NC)CC[C@H]3N)[C@@H](N)C[C@H]2N)OC[C@]1(C)O.O=S(=O)(O)O [Gentamicin C1 sulfate],EC2X (median concentration that doubles the intensity of the nonsense suppression),[1],100 µM
same,Max Fold over DMSO (median maximum fold increase of full length protein production over DMSO-treated samples),[2],3.7
Gentamicin C1a sulfate,EC2X (median concentration that doubles the intensity of the nonsense suppression),,135 µM
same,Max Fold over DMSO (median maximum fold increase of full length protein production over DMSO-treated samples),,2.6
"CN[C@@H]1[C@@H](O)[C@@H](O[C@@H]2[C@@H](O)[C@H](O[C@H]3O[C@H](CO)[C@@H](O)[C@H](O)[C@H]3N)[C@@H](N)C[C@H]2N)OC[C@]1(C)O [Compound 1 sulfate, (2R,3S,4R,5R,6S)-5-amino-6-(((1R,2S,3S,4R,6S)-4,6-diamino-3-(((2R,3R,4R,5R)-3,5-dihydroxy-5-methyl-4-(methylamino)tetrahydro-2H-pyran-2-yl)oxy)-2-hydroxycyclohexyl)oxy)-2-(hydroxymethyl)tetrahydro-2H-pyran-3,4-diol]",EC2X (median concentration that doubles the intensity of the nonsense suppression),[1],19 µM
same,Max Fold over DMSO (median maximum fold increase of full length protein production over DMSO-treated samples),[2],47
CN[C@@H]1[C@@H](O)[C@@H](O[C@@H]2[C@@H](O)[C@H](O[C@H]3O[C@H]([C@H](C)N)CC[C@H]3N)[C@@H](N)C[C@H]2N)OC[C@]1(C)O.O=S(=O)(O)O [Gentamicin C2a sulfate],EC2X (median concentration that doubles the intensity of the nonsense suppression),[1],260 µM
same,Max Fold over DMSO (median maximum fold increase of full length protein production over DMSO-treated samples),[2],3.1
CN[C@@H]1[C@@H](O)[C@@H](O[C@@H]2[C@@H](O)[C@H](O[C@H]3O[C@H](CO)[C@@H](O)[C@H](O)[C@H]3N)[C@@H](N)C[C@H]2N)OC[C@H]1O [Gentamicin A sulfate],EC2X (median concentration that doubles the intensity of the nonsense suppression),[1],566 µM
same,Max Fold over DMSO (median maximum fold increase of full length protein production over DMSO-treated samples),[2],4.1
